The results in this text go back to patent US11884932B2, “In vitro production of medial ganglionic eminence precursor cells” (The Regents of the University of California, priority 2013, dated 2024).

For data set [1], the system named is spontaneous PSCs recorded from hESC-derived neurons post-injection. The data set can be described thus: Whole-cell recording of spontaneous PSCs of transplanted hESC-derived neurons in mouse brain slices. The format is cell-based, human. The note with it: mouse brain slices 7 MPI. The method, then: (§1) For cultured neurons, the bath was constantly perfused with fresh recording medium containing (in mM): 145 NaCl, 3 KCl, 3 CaCl2, 2 MgCl2, 10 HEPES, 8 glucose. Transverse slices (300 μm) were cut on a […] (Leica VT1200S) and maintained in an incubation chamber with aCST containing (in mM): 110 Choline Cl, 2.5 KCl, 0.5 CaCl2, 7 MgCl2, 1.3 NaH2PO4, 25 NaHCO3, 10 glucose. Slice recording medium contained (in mM): 125 NaCl, 2.5 KCl, 2 CaCl2, 1.3 MgCl2, 1.3 NaH2PO4, 25 NaHCO3, 10 glucose. Recordings were made with an Axon 700B patch-clamp amplifier and 1320A interface (Axon Instruments). Signals were filtered at 2 kHz using amplifier circuitry, sampled at 10 kHz, and analyzed using Clampex 10.2 (Axon Instruments).
To examine whether hESC-derived MGE-like cells could develop into functional interneurons that synaptically integrate in vivo, we performed whole-cell recordings of RFP+ human cells in mouse brain slices seven MPI. […]
FIG. 7. hESC-derived MGE-like Interneuron Precursor Cell Maturation and Functional Integration in the Mouse Brain. • (A) Day 35 ML cultures FACS-sorted for NKX2.1-GFP and PSA-NCAM, and injected into newborn mouse cortex. […] Scale Bar: 50 μm. • (D-E) Quantification of histology at 2 (black), 4 (orange), and 7 (blue) MPI, and of SST, CALB, and CALR (E). […] Inset: RFP fluorescence of filled neuron 7 MPI. […]

In a further data set the test system is GABAA receptor. As to the kind of experiment: Whole-cell patch recording of post-synaptic currents in cultured hESC-derived neurons and co-cultured human fetal cortical neurons. The format is cell-based.
Source text: The patch electrodes were made from borosilicate glass capillaries (B-120-69-15, Sutter Instruments) with a resistance in the range of 5-7 MΩ. The pipettes were tip-filled with internal solution containing (in mM): 125 K-gluconate, 15 KCl, 10 HEPES, 4 MgCl2, 4 Na2ATP, 0.3 Na3GTP, 10 Tris-phosphocreatine, 0.2 EGTA.
as §1
Photostimulation was delivered by mercury lamp (75 mW) with a GFP excitation bandpass filter and light pulses were generated by Maste-8 (A.M.P.I.) through a high-speed shutter (UNIBLITZ), the power density of the blue light (Boyden, E. S., et al. (2005). Nat Neurosci 8, 1263-1268) (Nagel, G., et al. (2003). Proc Natl Acad Sci USA 100, 13940-13945) was 8-12 mW·mm−2, measured with a power meter (Coherent Instruments).
The percentage of neurons receiving sPSCs increased from 33.3% at eight WPD (n=12) to 82.1% at 12 WPD (n=28, FIG. 6C). To confirm that GABAergic neurons were able to send outputs to neighboring neurons, we transfected half of the neurons with Synapsin promoter—Channelrhodopsin2-EYFP (ChR2-EYFP) by lentiviral infection. […] The reversal potential of light-evoked PSCs was −32.7 mV (FIGS. 6F and 6G), close to the expected Cl-reversal potential under our recording conditions [−37.3 mV=−53.4 mV (by Nernst equation)±16.1 mV (junction potential)]. […]

The test system of data set [2] is hESC-derived cultures. As to the kind of experiment: Viability of differentiating hESC cultures. Format: cell-based, human. The following applies: 2-6 μM purmorphamine. On the procedure: (§2) SHH pathway activation was required for NKX2,1-GFP+ cell derivation. In this study, we used 1-2 μM of purmorphamine or 500 ng/mL of SHH. […] Addition of an FGF inhibitor (PD173074) from the onset of differentiation (d0-25) caused a decrease in cells expressing FOXG1 (55%), but addition of the same inhibitor on day 14 (d14-25) had no effect on FOXG1 levels (not shown). Therefore, similar to fetal forebrain development, early inhibition of WNT and activation of FGF signaling pathways, along with SHH activation, play roles in patterning the ventral-telencephalic-like identity of hESC-derived cultures.
Cost-effective cell production methods will be preferred over lengthy protocols and expensive recombinant protein-based reagents, and cryopreservation of cells will facilitate future work. Here, we used 3 small molecules (Y27632, SB431542, and purmorphamine) and 2 recombinant proteins (BMPRIA-Fc and DKK1). Several small molecule substitutes now exist for inhibition of BMP and WNT pathways. […] In addition, ˜25% of hESC-derived MGE-like cells were viable after cryopreservation and thawing, and thawed cells matured into neurons with functional properties as confirmed by electrophysiology.

The test system of the next data set is HES-3 NKX2.1GFP/w hESCs. The data set can be described thus: NKX2.1-GFP+ differentiation efficiency of hESCs by FACS / flow cytometry. The note with it: for NKX2.1-GFP+ MGE precursor-like cell efficiency: KSR/B27 media. The format is cell-based, human. On the procedure: HES-3 hESCs were maintained on irradiated mouse embryonic fibroblasts (Millipore) in knockout DMEM with 20% knockout serum replacement, 1% nonessential amino acids (NEAA), 1% pen-strep-glutamine, 0.0008% 2-mercaptoethanol, and 10 ng/mL FGF-basic (Invitrogen), Differentiation was initiated by CollagenaseIV/Dispase (1 mg/mL each; Invitrogen) preferential selection for hESC colonies. Colonies were trypsinized to single cells, and, as described (Eiraku, M., et al. (2008). Cell Stem Cell 3, 519-532), ˜10,000 cells/well were plated into low-attachment round-bottom 96-well plates (Corning or NOF) to form one sEB/well in optimized B27+5F; differentiation medium #1, consisting of Neurobasal-A, 2% B27-vitamin A (Invitrogen), and the same supplements in hESC media but without FGF. Also, Y27632 (10 μM), SB3431542 (10 μM), Purmorphamine (1-2 μM) (Stemgent), BMPRIA-Fc (1.5 μg/mL), and DIKK1 (1 μg/mL) (Invitrogen) were added.
On ˜d7, Y27632 was removed, and sEBs were plated adherent en-bloc onto matrigel (BD Biosciences) coated plates in medium #1. On ˜d14, factors were removed from medium #1 except for Purmorphamine. On ˜d25, aEBs were trypsinized and replated as dissociated monolayer onto matrigel or polyornithine/laminin coated plates. DAPT (10 μM) (Tocris) was added from ˜d27-d30. After FACS sorting on day ˜35, GFP+ cells could be replated (10-25,000 cells/cm2) onto cortical glial cells in medium #1. Glial cells were prepared from newborn mouse cortex, passaged at least 3× with serum to remove mouse neurons, and pre-treated at confluency with Ara-C (5 μM) (Sigma). Every 3-4 days, half of media was replaced with differentiation medium #2: Neurobasal-A, 2% B27+vitamin A, (Invitrogen) and same supplements in medium #1, without factors, except NEAA and Purmorphamine were removed, and BDNF (25 ng/mL) was added (R&D Systems). Media was replaced every 3-4 days.
FACS analysis and sorting was performed on FACS Aria II (BD Biosciences). Cells were gated for live cell DAN exclusion, small scatter size, single cells, NKX2.1-GFP signal, and PSA-NCAM-APC or -PE (Miltenyi Biotech) signal intensity. GFP-negative cells and isotype antibody (Santa Cruz) controls were used. Data was analyzed with Flowjo (Treestar) software. For live cell imaging, differentiation was similar to above, but 5,000 cells/well were plated into Aggrewell-800 plates (Stem Cell Technologies), and sEBs were plated en-bloc on day 4-7. Imaging was performed by time-lapse confocal microscopy with temperature (37° C.) and gas (5% O2, 5% CO2, 90% N2) controls (Leica SP5).
FIG. 24, Bottom Panel: Flow cytometry was used to determine the efficiency of generation of NKX2.1GFP+ MGE precursor cells using the small molecule inhibitors. The efficiency of generation of NKX2.1GFP+ MGE precursor cells was determined as what percent of cells of the cells analyzed were NKX2.1GFP+ MGE precursor cells.

Data set [3] deals with hESC-derived cultures. As to the kind of experiment: Cells expressing telencephalic FOXG1 in hESC-derived cultures. Format: cell-based, human. On the procedure: Cultured cells were fixed in 4% paraformaldehyde for 10-20 min. Mouse brains were fixed overnight-4° C. after trans-cardial perfusion and sectioned (50 μm) by vibratome or sliding microtome. EBs and human tissue were sectioned (25 μm) by cryostat. Cells and sections were stained: 5-10 min antigen retrieval with boiling 0.01M citrate buffer pH=6, 1 hr block with 5% serum and 0.1% triton X100 in PBS, overnight-4° C. primary antibody in block buffer (except triton-free buffer used for GABA antibody), wash 3× in PBS+tritonX100, 2 hr secondary antibody (Invitrogen), wash 4× in PBS+tritoriX100.
as §2

Turning to `N#Cc1cc2nc(O)c(O)nc2cc1[N+](=O)[O-]` [CNQX, 6-Cyano-2,3-dihydroxy-7-nitro-quinoxaline], the “block of remaining spontaneous PSCs with fast decay-time” value in data set [1] (applied after BMI) is “blocked”.

As to `C[N+]1(C)CCc2cc3c(cc2[C@H]1[C@@H]1OC(=O)c2c1ccc1c2OCO1)OCO3.[I-]` [BMI, bicuculline methiodide], the “block of spontaneous PSCs with slow decay-time” value in data set [1] is listed as “blocked”. Further, the “block of spontaneous post-synaptic currents (sPSC)” value in the data set on GABAA receptor (BMI 20 μM, hESC-derived neurons co-cultured with mouse glial cells, eight weeks post-differentiation) was “fully blocked”. Besides, in the data set with GABAA receptor (ChR2-EYFP hESC-derived neurons, blue light, neighboring neurons), the “block of light-evoked PSCs” value is recorded as “reversible blockade”. In the data set with GABAA receptor (co-culture seven weeks with ChR2 hESC-derived neurons), the “block of light-evoked GABAergic-specific PSCs in primary human fetal cortical neurons” value is listed as “completely blocked”.

Consider `c1ccc2c(Oc3nc(Nc4ccc(N5CCOCC5)cc4)c4ncn(C5CCCCC5)c4n3)cccc2c1` [purmorphamine], for which the “viability of later-stage monolayer cultures” value in the data set on hESC-derived cultures [2] is recorded as “decreased”. Besides, the “GFP+ differentiation efficiency in EB cultures” value in the data set on HES-3 NKX2.1GFP/w hESCs (2-6 μM purmorphamine versus 1-2 μM used) is reported as “slightly increased”. For the same molecule, the “NKX2.1-GFP+ MGE precursor-like cell efficiency” value in the data set on HES-3 NKX2.1GFP/w hESCs (25-day hybrid method, purmorphamine day 10-25, SB431542, BMPRIA-Fc and DKK1 throughout, FACS) was determined as 12%; in the data set on HES-3 NKX2.1GFP/w hESCs (as hybrid method but purmorphamine from day 0-25) it was 1.9%. In the data set with HES-3 NKX2.1GFP/w hESCs (B27 media throughout 25-day protocol, early addition of five factors (Y27632, SB431542, BMPRIA-Fc, DKK1, purmorphamine)), the “NKX2.1-GFP+ MGE precursor cells” value turned out to be 70%. Besides, in the data set on HES-3 NKX2.1GFP/w hESCs (B27 media, early purmorphamine, inhibitors removed after two weeks (d14), protocol extended to day 35, FACS), the “NKX2.1-GFP+ differentiation efficiency” value was “up to 90%”.

Take `CCN(CC)CCCCNc1ncc2cc(-c3cc(OC)cc(OC)c3)c(NC(=O)NC(C)(C)C)nc2n1` [PD173074]: the “cells expressing FOXG1” value in the data set with hESC-derived cultures [3] (FGF inhibitor added from onset of differentiation (d0-25)) was found to be 55%. Moreover, in the data set on hESC-derived cultures [3] (FGF inhibitor added on day 14 (d14-25)), the “effect on FOXG1 levels” value is given as “no effect”.

B1: DKK1: Dickkopf homolog 1, recombinant protein WNT inhibitor (protein, UniProt O94907 32-266, looked up)
Dickkopf-related protein 1: TLNSVLNSNAIKNLPPPLGGAAGHPGSAVSAAPGILYPGGNKYQTIDNYQPYPCAEDEECGTDEYCASPTRGGDAGVQICLACRKRRKRCMRHAMCCPGNYCKNGICVSSDQNHFRGEIEETITESFGNDHSTLDGYSRRTTLSSKMYHTKGQEGSVCLRSSDCASGLCCARHFWSKICKPVLKEGQVCTKHRRKGSHGLEIFQRCYCGEGLSCRIQKDHHQASNSSRLHTCQRH
B1: the “GFP+ cell differentiation efficiency” value in the data set on HES-3 NKX2.1GFP/w hESCs (DKK1 WNT inhibitor absent versus present) is on record as “similar”. The “number of cells expressing telencephalic FOXG1” value in the data set with hESC-derived cultures [3] (DKK1 WNT inhibitor absent) is given as 45%; with hESC-derived cultures [3] (with DKK1 WNT inhibitor), 70%.
